Where two headings read alike, the source gives them in different places.
Key:
HIV-1 strain NL4.3 = experiment: multi-cycle HIV-1 replication assay in CEM-GXR GFP-reporter T cells; assay type: cell-based; conditions: for inhibition of HIV-1 replication (in words): CEM-GXR T cell line; for EC50: read-out: EC50, in vitro HIV-1 replication
Procedure: The ability of compounds 1–7 to inhibit HIV-1 replication was evaluated in vitro using an established multi-cycle replication assay. Briefly, the CEM-GXR T cell line, which contains an HIV-1 promoter-driven green fluorescent protein (GFP) reporter, was infected with the full-length, infectious HIV-1 strain NL4.3 at a multiplicity of infection of 0.03 [18]. After 24 hours, cells were washed and subsequently incubated with compounds 1–7, the control HIV inhibitor efavirenz, or 0.1% DMSO vehicle control. GFP expression, a marker of viral replication, was then measured by flow cytometry after 72 hours.
(§1) The following reagents were obtained from the NIH AIDS Reagent Program: CEM CD4^+ cells (CEM) from Dr. J.P. Jacobs, [23] and pNL4-3 from M. Martin [24]. Efavirenz and panobinostat were purchased from Sigma-Aldrich (St. Louis, MO, USA). CEM and CEM-derived GXR25 GFP-reporter T cells (CEM-GXR; [18]) were cultured in R10+ medium [RPMI-1640 with HEPES and L-Glutamine (Lonza, Basel, Switzerland), 10% fetal calf serum, 100 U of penicillin/mL, and 100 µg of streptomycin/mL Sigma-Aldrich (St. Louis, MO, USA)]. Production of HIV-1 NL4.3 and multi-cycle HIV-1 replication assays were performed as described previously. Apoptosis assays were performed by staining CEM cells with annexin V-APC (BioLegend, San Diego, CA) according to manufacturer instructions.

[1] = system: multidrug transporter ABCG2; set-up: method as in PMID 20627559; conditions: cited from earlier work
[2] = system: GFP-expressing immortalised mouse olfactory ensheathing cells (mOEC); experiment: mOEC cell proliferation (resazurin viability) assay; assay type: cell-based; conditions: 10 µM, 24 hours of treatment
Procedure: Compounds 1–7 have now been added to the Davis Open-Access Compound Library housed at Compounds Australia, Griffith University, where they are available for collaboration in drug discovery or chemical biology research.
The cell proliferation assay was performed according to the method described by Chen et al., with modification. Briefly, GFP-expressing immortalised mouse OECs (mOEC) were seeded at 2000 cells/well in a 384-well microplate (Greiner Bio-One, Kremsmünster, Austria) with a Multidrop™ Combi Reagent Dispenser (Thermo Fisher Scientific, Waltham, MA, USA) using the BioCel Automation System (Agilent Technologies, Santa Clara, CA, USA) and incubated overnight at 37 °C under 5% CO2. After 24 hours, the cells were treated with 4 different concentrations of pure compounds (10, 1, 0.1 and 0.01 µM). 0.2% DMSO was used as negative control. Plates were incubated for 24 hours at 37 °C under 5% CO2. Cell viability of mOECs was measured by adding 5 µL of resazurin (500 μM, Sigma-Aldrich, Sydney, Australia) to the cells and incubated in dark for 4 hours at 37 °C under 5% CO2. The dehydrogenase enzymes found in metabolically active cells will convert resazurin to resofurin products that are soluble in culture medium. The fluorescent resofurin products produced by the viable cells are quantified using an EnVision™ Multilabel (PerkinElmer, Waltham, MA, USA) plate reader at 535/595nm. After that, the cells were fixed and stained with Hoechst (Thermo Fisher Scientific, Waltham, MA, USA) and stored at 4 °C prior to imaging. Cells were imaged automatically using Operetta™ (PerkinElmer, Waltham, MA, USA). Individual cell segmentation and cell count were performed using the Harmony 3.5.2® software.

[3] = compound stability (observation); assay type: physicochemical
CEM cells = experiment: apoptosis (annexin V-APC) cellular toxicity assay in CEM cells; assay type: cell-based; conditions: 72 hours
Procedure: Compounds 1–7 were further assessed for cellular toxicity in CEM cells, the parental cell line of CEM-GXR. After 72 hours’ treatment with compounds, toxicity was assessed by measuring the surface expression of the early apoptotic marker annexin V by flow cytometry (by staining with annexin V-APC). […] In contrast, no increase in apoptosis was observed up to 100 µM for compounds 1–7, with the exception of compound 2, which induced 1.4 ± 0.2 and 2.2 ± 0.4-fold increases at 30 and 100 µM, respectively.
as §1

[4] = Human immunodeficiency virus 1, CEM-GXR T cells, HIV-1 NL4.3, MOI 0.03, GFP by flow cytometry after 72 hours, mean ± s.d. of three independent experiments

With `COc1cc(O)cc2cc(O)c3c(=O)cc(C)oc3c12` [Compound 3, TMC-256C1] the “inhibition of HIV-1 replication (in words)” value (HIV-1 strain NL4.3) was “weaker but consistent antiviral activity”, the “fold reduction in activity compared to 2” value (HIV-1 strain NL4.3; HIV-1 replication EC50, methyl instead of propyl at C-2) was 3.4 fold and the EC50 (HIV-1 strain NL4.3; [4]) was 25.5 ± 3.4 µM.

Compound `CCCc1cc(=O)c2c(O)c3c(OC)cc(O)cc3c(OC)c2o1` [Compound 6, 5,8-dihydroxy-6,10-dimethoxy-2-propyl-4H-naphtho[2,3-b]pyran-4-one] has an EC50 (HIV-1 strain NL4.3; [4]) of 20.2 ± 4.9 µM.

For `COc1cc(O)cc2cc3oc(C)cc(=O)c3c(O)c12` [TMC-256A1], the “inhibition of ABCG2 (in words)” value [1] is listed as “inhibit”.

In the case of `CCCc1cc(=O)c2c(OC)c(OC)c3cc(O)cc(OC)c3c2o1` [Compound 4, 6-methoxycomaparvin-5-methyl ether], the EC50 (HIV-1 strain NL4.3; [4]) is reported as 14.5 ± 5.8 µM and the “increase in mOEC viability (in words)” value [2] is reported as “none of the compounds showed a significant increase”.

Work on `O=C1Nc2ccc(Cl)cc2[C@@](C#CC2CC2)(C(F)(F)F)O1` [Efavirenz, reference compound] yielded an EC50 (HIV-1 strain NL4.3; Human immunodeficiency virus 1, CEM-GXR, 72 h) of 0.0025 ± 0.0019 µM.

In the case of `CCCc1cc(=O)c2c(O)c(OC)c3cc(O)cc(OC)c3c2o1` [Compound 8, 6-methoxycomaparvin], the “stability (in words)” value [3] is reported as “unstable”.

For `CCCc1cc(=O)c2c(O)c3c(OC)cc(O)cc3c(OC)c2o1`, the “inhibition of ABCG2 (in words)” value [1] is given as “inhibit”.

With `CCCc1cc(=O)c2c(O)cc3cc(O)cc(OC)c3c2o1` [Compound 2, comaparvin] the “fold increase in activity as compared to 5” value (HIV-1 strain NL4.3; HIV-1 replication EC50, angular vs linear naphthopyrone) was “approximately 2.0 fold”, the EC50 (HIV-1 strain NL4.3; [4]) was 7.5 ± 1.7 µM and the “fold increase in apoptotic cells relative to 0.1% DMSO” value (CEM cells; 30 µM) was 1.4 ± 0.2 fold. The “fold increase in apoptotic cells relative to 0.1% DMSO” value (CEM cells; 100 µM) was 2.2 ± 0.4 fold.

In the case of `COc1cc(O)cc2cc3oc(C)cc(=O)c3c(O)c12` [Compound 7, TMC-256A1], the “inhibition of HIV-1 replication (in words)” value (HIV-1 strain NL4.3) is reported as “no detectable activity”, the EC50 (HIV-1 strain NL4.3; [4]) is reported as > 100 µM and the “increase in mOEC viability (in words)” value [2] is reported as “none of the compounds showed a significant increase”.

With `CCCc1cc(=O)c2c(cc(C(C)=O)c3c(OC)cc(=O)oc32)o1` [Compound 1, 5-acetyl-4-methoxy-8-propylpyrano[2,3-f]chromene-2,10-dione] the EC50 (HIV-1 strain NL4.3; [4]) was > 100 µM and the “increase in mOEC viability (in words)” value [2] was “none of the compounds showed a significant increase”.

In the case of `Cc1[nH]c2ccccc2c1CCNCc1ccc(/C=C/C(=O)NO)cc1` [panobinostat, reference compound], the “fold increase in apoptotic cells relative to 0.1% DMSO” value (CEM cells; 3 µM) is reported as 4.2 ± 1.8 fold.

For `CCCc1cc(=O)c2c(O)c3c(OC)cc(O)cc3cc2o1` [Compound 5, 5,8-dihydroxy-6-methoxy-2-propyl-4H-naphtho[2,3-b]pyran-4-one], the EC50 (HIV-1 strain NL4.3; [4]) was 15.6 ± 6.5 µM.

Reference: paper PMC6356231, “Capillasterin A, a Novel Pyrano[2,3-f]chromene from the Australian Crinoid Capillaster multiradiatus” (Marine Drugs, 2019)
